Consider one compound from US20220401408A1, “COMPOSITIONS AND METHODS FOR RESCUING RETINAL AND CHOROIDAL STRUCTURE AND FUNCTION” (AUCKLAND UNISERVICES LIMITED, priority 2019, published 2022).

The structures appear in SMILES notation. “Also recorded” adds a separate entry of the source.

The series deals with light damaged rats. Put plainly: Electroretinogram (ERG) in retina light damage model of dry AMD. The class given is in vivo, Sprague Dawley (SD) rats. Conditions: for mixed a-wave amplitude vs light damaged control group: 1 week post treatment. How it is done:
Retina Light Damage Model of Dry Age-Related Macular Degeneration—The intense light damage model was prepared and carried out as described in previous studies. Mat Nor N, Guo C X, Rupenthal ID, Chen Y S, Green C R, Acosta M L. Sustained Connexin43 Mimetic Peptide Release From Loaded Nanoparticles Reduces Retinal and Choroidal Photodamage. Invest Ophthalmol Vis Sci. 2018; 59:3682-93; Guo C X, Mat Nor M N, Danesh-Meyer H V, Vessey K A, Fletcher E L, O'Carroll S J, et al. Connexin43 Mimetic Peptide Improves Retinal Function and Reduces Inflammation in a Light-Damaged Albino Rat Model. Invest Ophthalmol Vis Sci. 2016; 57:3961-73; Guo C X, Tran H, Green C R, Danesh-Meyer H V, Acosta M L. Gap junction proteins in the light-damaged albino rat. Mol Vis. 2014; 20:670-82; Noell W K, Walker V S, Kang B S, Berman S. Retinal damage by light in rats. Invest Ophthalmol. 1966; 5:450-73. The light damage rat model was selected as it allows direct comparison with this and other drugs. Kim Y, Griffin J M, Nor M N M, Zhang J, Freestone P S, Danesh-Meyer H V, et al. Tonabersat Prevents Inflammatory Damage in the Central Nervous System by Blocking Connexin43 Hemichannels. Neurotherapeutics. 2017; 14:1148-65; Mat Nor N, Guo C X, Rupenthal ID, Chen Y S, Green C R, Acosta M L, supra; Guo C X, Mat Nor M N, Danesh-Meyer H V, Vessey K A, Fletcher E L, O'Carroll S J, et al., supra. […] All experimental procedures were approved by the University of Auckland Animal Ethics Committee, approval No. 001462 and comply with the Association for Research in Vision and Ophthalmology (ARVO) statement for the use of animals in eye research. Six to eight-week old albino Sprague Dawley (SD) rats (200-250 g; male or female) were used. Adult SD rats were exposed to continuous bright light for 24 hours, consistently starting at 9:00 am to minimize possible time-of-day variability. Light exposure was to two animals at a time to prevent rats from taking cover using each other as a shield. The LD protocol and intervention was repeated until the number of individuals for each dose group was obtained (n=7 per group). The light luminance was 2700 lux, generated using fluorescent lamps (Philips Master TLD 18W/965; Koninklijke Philips Electronics N.V., China) directly above the animal cages. The lamps were cool and emitted broadband light, from 380 to 760 nm wavelength, with the average intensity at the top of the cage being 120 W/m2. Animals were free to move within the cage with access to food and water ad libidum. Baseline electroretinography (ERG) readings and optical coherence tomography (OCT) images were collected prior to the light damage. After light exposure, animals were returned to normal light-dark cycle conditions (12 hours light, 174 lux and 12 hours darkness, <62 lux) for 24 hours, 1 week or 2 weeks (and for one group 3 months).
Tonabersat treatment of light damaged rats—LD rats were randomly assigned to low, middle or high dose of tonabersat (n=7 per group). The mixture of tonabersat in peanut butter was prepared fresh for each experiment. Three oral tonabersat doses were tested (n=7 per group) with follow up to 2 weeks post-injury, and the highest dose group then split with three animals taken for histological analysis, and four animals followed to 3 months post-injury. There was a ten-animal vehicle only control group. The group of rats that were kept for 3 months were maintained in separate cages for drug or vehicle-treated animals, but were kept under the same light conditions. Tonabersat was fed to animals in peanut butter at 0.26 mg/kg (on average 0.08 mg delivered, estimated circulating concentration 10 μM), 0.8 mg/kg (average of 0.24 mg delivered; 30 μM circulating) or 2.4 mg/kg (on average 0.72 mg delivered; 90 μM circulating) following consideration of previous unsuccessful human trial dosing levels. Silberstein S D. Tonabersat, a novel gap-junction modulator for the prevention of migraine. Cephalalgia. […]

[1] abbreviates: 2.4 mg/kg oral single dose, 3 months after light damage.

For the compound `CC(=O)c1ccc2c(c1)[C@H](NC(=O)c1ccc(F)c(Cl)c1)[C@H](O)C(C)(C)O2` [tonabersat, N-[(3S,4S)-6-acetyl-3-hydroxy-2,2-dimethyl-3,4-dihydrochromen-4-yl]-3-chloro-4-fluorobenzamide], the improvement in absolute amplitude of the b-wave (on average) runs as follows: (0.26 mg/kg oral) 1000 µV; (0.8 mg/kg oral) 1000 µV; (2.4 mg/kg oral) 1200 µV. Besides, the “mixed a-wave amplitude vs light damaged control group” value is, setting by setting: (0.26 mg/kg oral single dose, p<0.01) “significant improvements”; (0.8 mg/kg oral single dose, p<0.01) “significant improvements”; (2.4 mg/kg oral single dose, intensities 0.1-2.1 log cd·s/m2, p<0.001) “significant improvements”. Also, the mixed b-wave function entry is listed as “significant improvement” (0.26 mg/kg oral, 24 hours after treatment) and “significant improvement” (0.8 mg/kg oral, 24 hours after treatment). Also, the “mixed b-wave function, significant improvement” value (2.4 mg/kg oral (high dose), 24 hours after treatment) was “not seen”. Moreover, the “a-wave improvement in photoreceptor function compared with vehicle treated controls” value under setting [1] was “exceeding 400 V”. Moreover, the “b-wave amplitude compared with vehicle treated controls” value under setting [1] is “exceeded 800 V”. The “PII rod response compared to before light damage” value (2.4 mg/kg oral, 3 months) was “no change; also recorded: matching the controls”. Further, the “PIII rod response compared to before light damage” value (2.4 mg/kg oral, 3 months) is reported as “no change; also recorded: only slightly lower”. Further, the “ERG, difference to vehicle control group” value (24 hours post-light exposure, any of three oral doses (0.26, 0.8, 2.4 mg/kg)) is “no differences”. Besides, under “all three oral doses, 1 and 2 weeks post-treatment”, the “inner retinal function (mixed b-wave amplitude, all stimulus intensities)” value is “overt improvement”. Also, for the setting “all three oral doses, 2 weeks post-treatment, highest intensity, p<0.001”, the “improvement in ERG a-wave over vehicle treated light-injured group” value is given as around 500 V. For the setting “all three oral doses, 2 weeks post-treatment, intensities 0.1-2.1 log cd·s/m2, p<0.001”, the mixed a-wave amplitude result was “significant recovery”. Besides, the “mixed a-wave and mixed b-wave functions” value (all tonabersat-treated animals, end of 2-week recovery period) is reported as “within the range of variance for normal, undamaged albino rats”.
